Laboratory results as given in patent publication US10301258B2, “Benzende sulfonamide derivatives as HIV integrase inhibitors” (priority 2014, dated 2019).
“Also recorded” adds a separate entry of the source.

Experiments:
[1] = system: HIV-1 integrase (C-terminal domain), eGFP-MBP-IN-WT; assay: cellular integrase assay (integrase screening assay, nuclear import inhibition); type: cell-based; details: HEK 293T cells transfected with eGFP-MBP-IN-WT, fluorescence microscopy, FIG. 1
Procedure: In assessing suitability of a compound according to any of the formulas herein, an integrase screening assay can be conducted. In the present case, an exemplary such assay is a cellular integrase assay. A cellular integrase assay can be performed in a 24 well plate. The assay is designed to test compounds in 3-fold serial dilutions (10, 3.3, 1.1 and 0.33 μM) with 0.1% DMSO. Negative and positive control included eGFP-MBP-IN-R262/3/6A, eGFP-MBP-IN-K236/240 and eGFP-MBP-IN-WT respectively supplemented with 0.1% DMSO. Refinement of the assay for optimal results is feasible. For example, refinement herein yields the following protocol. HEK 293T cells (˜0.4*10^5 cells/ml) are seeded and incubated at 37° C. (5% CO2) for ˜3 days on Poly-L-lysine treated glass coverslips until 80-90% confluent (˜3.2*10^5 cells/ml). Next, cells are transfected with 1 μg of eGFP-MBP-INR262/3/6A, eGFP-MBP-IN-K236/240 and eGFP-MBP-IN-WT DNA plasmid simultaneously with test compounds, at varying concentrations mentioned above, using lipofectamine 2000 transfection reagent (μL) at a ratio of 1:2 DNA plasmid to lipofectamine. After 4 hrs of incubation (at 37° C., 5% CO2), the lipofectamine mix is removed and replaced with fresh medium containing serum in the presence of the test compounds. […] Images may be prepared using an Olympus 1X51 fluorescence microscope equipped with a camera by way of example. […]

HIV-1 lentiviral vector = HIV-1 lentiviral vector screening assay; type: cell-based; details: HeLa cells, compared with no drug
Procedure: For the vector assay HeLa cells can be utilized and the experiment can be performed in a suitable plate, such as a 24 well plate. […] A negative control, e.g., AZT, and a positive control as vector only and blank as un-infected are appropriately selected. Again, the concentration of DMSO was limited to 0.1%. Hela cells (˜3.2-10^5 cells/ml) were infected with HIV-1 lentiviral vector in the presence of the compounds to be tested and controls. After the first 24 hours of incubation at 37° C. (5% CO2), cells are replaced with fresh media containing test compounds and incubated for an additional 24 hrs. Cells are fixed with 4% paraformaldehyde in PBS and mounted in DAPI on glass slides for visualization and quantification. Images, of at least 2 fields per glass disk are obtained, such as images taken with an Olympus 1X51 fluorescence microscope equipped with a camera. EGFP fluorescence spanning an average area of 12*10^5 square pixels is quantified using Image J software, from which IC50 values can bee extrapolated using graph pad PRISM software.
For the vector assay HeLa cells were utilized and the HIV-1 lentiviral vector screening was performed in a 24 well plate. […] Cells were fixed with 4% paraformaldehyde in PBS and mounted in DAPI on glass slides for visualization and quantification. […]

HeLa cells = details: lentiviral vector screening, at high concentrations
Procedure: For the vector assay HeLa cells were utilized and the HIV-1 lentiviral vector screening was performed in a 24 well plate. […] As the negative control AZT was used, a positive control as vector only and blank as un-infected were additionally used. Again the concentration of DMSO was limited to 0.1%. Hela cells (˜3.2*10^5 cells/ml) were infected with HIV-1 lentiviral vector in the presence of the compound(s) tested and controls. After the first 24 hours of incubation at 37° C. (5% CO2), cells were replaced with fresh media containing test compounds and incubated for an additional 24 hrs. Cells were fixed with 4% paraformaldehyde in PBS and mounted in DAPI on glass slides for visualization and quantification. Images, of at least 2 fields per glass disk were taken with an Olympus 1X51 fluorescence microscope equipped with a camera.

## Cc1ccc(S(=O)(=O)NCCCNS(=O)(=O)c2ccc(C)cc2)cc1 [compound 535, 4-methyl-N-[3-(4-methylbenzenesulfonamido)propyl] benzene sulfonamide]
[1]
  inhibition of nuclear import of integrase (nuclear exclusion phenotype): nuclear exclusion of the fusion protein in majority of cells; also recorded: exhibited inhibition sufficient to prevent nuclear import of integrase; also recorded: clearly demonstrates inhibition of nuclear import of IN
[1]; listed as representative compound
  inhibition of nuclear import of integrase (nuclear exclusion phenotype): displayed inhibition of nuclear import of IN similar to that of the triple mutant chimeric IN
HIV-1 lentiviral vector; FIG. 2
  inhibitory effect on HIV infectivity / HIV-1 replication, dose dependence: exhibited an inhibitory effect in a dose dependent manor
HIV-1 lentiviral vector; FIG. 2, listed as representative compound
  inhibitory effect on HIV infectivity / HIV-1 replication, dose dependence: clearly inhibited HIV-1 replication in a dose-dependent manor
HeLa cells
  cellular toxicity: without introducing cellular toxicity
